Source: PubChem BioAssay (NCI)
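Each compound was tested at five concentrations against cells in 96-well plates for 48 hours. At the GI50, growth is halved. The concentration for full growth arrest is given as TGI.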

How the values were obtained:
Experiment in all cases: NCI tumour cell line growth inhibition, 48 h
ACHN renal = test system: ACHN renal
IGROV1 ovarian = test system: IGROV1 ovarian
K-562 leukemia = test system: K-562 leukemia
LOX IMVI melanoma = test system: LOX IMVI melanoma
NCI-H23 lung = test system: NCI-H23 lung
OVCAR-8 ovarian = test system: OVCAR-8 ovarian
SK-MEL-2 melanoma = test system: SK-MEL-2 melanoma
SK-MEL-28 melanoma = test system: SK-MEL-28 melanoma
SK-OV-3 ovarian = test system: SK-OV-3 ovarian
UO-31 renal = test system: UO-31 renal

SMILES	GI50 (ACHN renal)	TGI (ACHN renal)	GI50 (IGROV1 ovarian)	TGI (IGROV1 ovarian)	GI50 (K-562 leukemia)	TGI (K-562 leukemia)	GI50 (LOX IMVI melanoma)	TGI (LOX IMVI melanoma)	GI50 (NCI-H23 lung)	TGI (NCI-H23 lung)	GI50 (OVCAR-8 ovarian)	TGI (OVCAR-8 ovarian)	GI50 (SK-MEL-2 melanoma)	TGI (SK-MEL-2 melanoma)	GI50 (SK-MEL-28 melanoma)	TGI (SK-MEL-28 melanoma)	GI50 (SK-OV-3 ovarian)	TGI (SK-OV-3 ovarian)	GI50 (UO-31 renal)	TGI (UO-31 renal)
CCCc1cc(O)c2c3c(c(=O)oc2c1)CN(C)CC3	> 100 µM	> 100 µM	> 100 µM	> 100 µM	31.8 µM	> 100 µM	76.2 µM	> 100 µM	98.9 µM	> 100 µM	> 100 µM	> 100 µM	> 100 µM	> 100 µM	21.8 µM	67.4 µM	85 µM	> 100 µM	35.8 µM	> 100 µM
CCC[CH2][Sn]([CH2]CCC)([O]C(=O)c1cc(F)ccc1F)[O][Sn]([CH2]CCC)([CH2]CCC)[O]C(=O)c1cc(F)ccc1F	0.251 µM	0.738 µM	1.03 µM	2.33 µM	0.0372 µM	6.22 µM	0.132 µM	0.306 µM	0.0702 µM	0.311 µM	0.374 µM	1.57 µM	0.18 µM	0.496 µM	0.169 µM	0.497 µM	1.03 µM	2.34 µM	0.54 µM	1.78 µM
O=[N+]([O-])c1ccccc1N=Nc1c(O)[nH]c2ccc(Br)cc12	–	22.9 µM	–	20.1 µM	–	> 68.3 µM	–	> 61 µM	–	21.3 µM	–	44 µM	–	54.1 µM	–	> 61.9 µM	–	> 77.3 µM	–	44.7 µM
CC(=O)CCc1ccc(OC2OC(COC(=O)c3cc(O)c(O)c(O)c3)C(O)C(O)C2OC(=O)/C=C/c2ccccc2)cc1 (centres undefined)	25.6 µM	75.4 µM	19 µM	38.6 µM	22.6 µM	65.5 µM	17.1 µM	41.4 µM	17.5 µM	38.6 µM	21.2 µM	55 µM	20.2 µM	43 µM	19.4 µM	39.9 µM	29.8 µM	68.5 µM	30.2 µM	> 100 µM
CC[O-].CC[O-].O=C([CH-]C(=O)c1cccnc1)c1ccccc1.O=C([CH-]C(=O)c1cccnc1)c1ccccc1.[Ti+4]	53.4 µM	> 100 µM	> 100 µM	> 100 µM	36.2 µM	> 100 µM	> 100 µM	> 100 µM	–	–	26.2 µM	> 100 µM	> 100 µM	> 100 µM	> 100 µM	> 100 µM	91.8 µM	> 100 µM	> 100 µM	> 100 µM
Nc1nc(N)c(Cn2ccnc2)c(=O)[nH]1	–	> 100 µM	–	> 100 µM	–	> 100 µM	–	> 100 µM	–	> 100 µM	–	> 100 µM	–	> 100 µM	–	–	–	> 100 µM	–	> 100 µM
Cc1cc(Cl)cc2c(N=Nc3ccccc3[N+](=O)[O-])c(O)[nH]c12	–	> 100 µM	–	> 100 µM	–	> 100 µM	–	> 100 µM	–	> 100 µM	–	–	–	> 100 µM	–	> 100 µM	–	> 100 µM	–	> 100 µM
O=c1cc(-c2ccccc2)oc2cc(O)c(O)c(O)c12	9.32 µM	> 100 µM	–	–	12.6 µM	> 100 µM	28 µM	> 100 µM	12.7 µM	39.7 µM	46.5 µM	> 100 µM	53.9 µM	> 100 µM	92.3 µM	> 100 µM	59.6 µM	> 100 µM	13.9 µM	> 100 µM
